In US20250313563A1, “GLYCOGEN SYNTHASE KINASE 3 INHIBITORS AND USES THEREOF” (The Broad Institute, Inc., priority 2022, published 2025):
Like-named read-outs stand apart in the source and are kept apart here.

Key:
GSK3α = GSK3α (Homo sapiens (Human), UniProt P49840); test: pThr231 tau phosphorylation plate-based assay in HEK-huTau cells transfected with GSK3α; format: cell-based; conditions: for IC50: HEK-huTau cells transfected with human GSK3α, 10-point dose response, 2 hours, read-out: GSK3α IC50 (inhibition of pThr231); for selectivity for GSK3α over GSK3β: pThr231 HEK-huTau assay, GSK3β IC50 / GSK3α IC50
Method: (§1) HEK293 or SH-SY5Y cells were obtained from American Type Culture Collection (ATCC, Manassas, VA) and cultured in Dulbecco's modified Eagle's medium (DMEM) supplemented with 10% fetal bovine serum (FBS), 10 units/ml penicillin, and 10 μg/ml streptomycin (all reagents were purchased from Gibco, Waltham, MA). Cell cultures were maintained in a humidified 5% (v/v) CO2/air environment at 37° C. When the cells reached 50-80% confluence, they were transfected with a complex consisting of a 3:1 ratio of FuGENE 6 Transfection Reagent (Promega, Madison, WI) and plasmid DNA. Plasmid DNA was balanced out across reactions using an empty plasmid so that the same amount of DNA was added per well. This transfection complex was prepared following the manufacturers protocol and added directly to the cell media for 24 or 48 hours prior to lysis.
(§2) 293T cells stably expressing human 2N4R Tau were transfected with appropriate cDNA plasmids. 24 hours following transfection cells were treated with compound in a 10-point dose-response (from 1000× stocks of compound) and lysates harvested 2 hours later with cell extraction buffer (Life Technologies Cat #BN0001) or RIPA Buffer with Halt protease/phosphatase inhibitors added.
(§3) For pThr231 assay: Lysate was diluted 1:100 in assay buffer and Total Tau and pTau T231 was assessed by plate-based ELISA as per manufacturer instructions (MSD Cat #K15121D-1). Total fluorescence was measured using an Envison plate reader.
(§4) To test the potency and isoform selectivity of GSK3 small molecule inhibitors, HEK-huTau cells were transfected with plasmids containing either human GSK3α or GSK3β. Twenty-four hours after transfection, compounds were added at a 10-point dose response curve (at a range of 30 μM-3 nM) for a total of 2 hours, and cell lysates were probed for total tau and pThr231 using a plate-based assay.

human GSK3β = human GSK3β (Homo sapiens (Human), UniProt P49841); test: pThr231 tau phosphorylation plate-based assay in HEK-huTau cells transfected with GSK3β; format: cell-based; conditions: HEK-huTau cells transfected with human GSK3β; 10-point dose response, 2 hours; read-out: GSK3β IC50 (inhibition of pThr231)
Method: as §1, §2, §3, §4

NanoLuc-GSK3α [1] = target: T1, NanoLuc-GSK3α (Homo sapiens (Human), UniProt P49840); test: NanoBRET live-cell target engagement assay, GSK3α; format: cell-based; conditions: HEK293T cells, Tracer-8 at EC50
Method: (§5) HEK293T cells were transiently transfected with NanoLuc®-GSK3-alpha or NanoLuc®-GSK3-beta constructs using FuGene®-HD (Promega). Next day, the live cell NanoBRETTM target engagement assay was performed. […] Immediately prior to BRET measurements, NanoBRETTM Nano-Glo® Substrate and Extracellular NanoLuc® Inhibitor were added on cells and incubated for 2-3 minutes at room temperature. Donor emission at 450 nm and acceptor emission at 610 nm were measured using a EnVision plate reader. Raw BRET ratio values were calculated by dividing the acceptor emission value by the donor emission value for each sample. Raw BRET units were converted to milliBRET units (mBU) by multiplying each raw BRET value by 1000. mBU values for compound treatments were normalized to DMSO treatment. Ki values are calculated using the formula: Ki=(IC50)/(1+([Tracer]/EC50)). All experiments were performed as biological triplicates with three technical replications.
(§6) To further characterize the GSK3 inhibitor 837646, this compound was tested in a live-cell target engagement assay to investigate binding mode and residence time. […] In this assay, compound binding was quantified as loss of BRET signal from baseline due to competitive displacement of the tracer. […]

NanoLuc-GSK3β = NanoLuc-GSK3β (Homo sapiens (Human), UniProt P49841); test: NanoBRET live-cell target engagement assay, GSK3β; format: cell-based; conditions: HEK293T cells, Tracer-8 at EC50
Method: as §5, §6

NanoLuc-GSK3α [2] = target: T1, NanoLuc-GSK3α; test: NanoBRET residence time, GSK3α; format: cell-based; conditions: inhibitor at 10× IC50, BRET every 5 min for 3 hours
[3] = test system: β-catenin nuclear translocation in SH-SY5Y cells; test: β-catenin translocation assay; format: cell-based; conditions: SH-SY5Y cells
Method: SH-SY5Y cells were seeded into a 96-well CellCarrier Ultra (Perkin Elmer) plate at a density of 1×10^5 cells/ml in complete DMEM. Sixteen hours following plating, media was changed to DMEM with 2% serum, and compound was added with a D300e Digital Dispenser (Tecan) for an incubation time of six hours. After compound incubation, media was removed, and cells were fixed with 4% PFA for 10 minutes at room temperature. Each well was washed three times with PBS-T and then blocked with buffer (1×PBS with 5% Normal Goat Serum and 0.3% Triton X-100) for 30 minutes at room temperature. β-Catenin primary antibody (Cell Signaling #8480) was added at 1:500 dilution in blocking buffer and the cells were allowed to incubate in primary overnight at 4° C. The following day, primary antibody was removed, each well was washed three times with PBS-T, and secondary antibody (1:2000 anti-rabbit AlexaFluor Plus 488 and 1:10,000 Hoechst 33342) was added and allowed to incubate for 60 minutes at room temperature protected from light. After one-hour, secondary antibody was removed and wells were washed four times with PBS-T before imaging on the Opera Phenix. Sixteen fields per well were imaged with a 20× water lens.
Images were quantified in the Columbus Image Data Storage and Analysis software. Cells were identified using the Hoechst nuclear stain to identify individual nuclei. Intensity of the nuclear stain was also used to determine cell viability (Viable cells <30% CV of Hoechst Intensity)

[4] = target: GSK3α (GST-full length GSK3α) (Homo sapiens (Human), UniProt P49840); test: GSK3α TR-FRET kinase assay; format: biochemical
How it was run: (§7)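 In this time-resolved FRET format, kinase reactions contained 200 nM biotinylated, S645-phosphorylated glycogen synthase 631-650 peptide and either isoform-specific ATP (2 μM GSK3b, 4 μM GSK3α) or 1 mM ATP. They were quenched with EDTA after 100 min at ambient temperature. Inhibition curves gave IC50 values.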

[5] = target: GSK3b (GST-full length GSK3b) (Homo sapiens (Human), UniProt P49841); test: GSK3b TR-FRET kinase assay; format: biochemical
How it was run: as §7

[6] = 1 nM GSK3α, 4 μM ATP, 30 minute preincubation, Table 16, read-out: GSK3-A TR-FRET BIOCHEMICAL (TR-FRET)
[7] = 1 nM GSK3b, 2 μM ATP, 30 minute preincubation, Table 16, read-out: GSK3-B TR-FRET BIOCHEMICAL (TR-FRET)

GSK3α (GST-full length GSK3α), sequence (P49840 whole entry, canonical isoform): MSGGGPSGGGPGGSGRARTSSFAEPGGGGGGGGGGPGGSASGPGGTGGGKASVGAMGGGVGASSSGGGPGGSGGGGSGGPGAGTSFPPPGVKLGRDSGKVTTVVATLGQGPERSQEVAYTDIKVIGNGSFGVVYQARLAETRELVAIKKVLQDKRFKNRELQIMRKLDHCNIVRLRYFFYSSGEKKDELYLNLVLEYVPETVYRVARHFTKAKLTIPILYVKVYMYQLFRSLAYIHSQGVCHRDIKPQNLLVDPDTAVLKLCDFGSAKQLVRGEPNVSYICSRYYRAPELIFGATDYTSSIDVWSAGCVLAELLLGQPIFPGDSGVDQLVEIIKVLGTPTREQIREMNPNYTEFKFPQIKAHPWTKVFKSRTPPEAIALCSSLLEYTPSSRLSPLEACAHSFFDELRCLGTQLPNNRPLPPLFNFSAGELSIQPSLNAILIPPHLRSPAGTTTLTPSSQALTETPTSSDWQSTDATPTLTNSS
GSK3α, sequence (P49840 whole entry): as the sequence (P49840 whole entry, canonical isoform) above
T1 sequence (P49840 whole entry): as the sequence (P49840 whole entry, canonical isoform) above
GSK3b (GST-full length GSK3b), sequence (P49841 whole entry): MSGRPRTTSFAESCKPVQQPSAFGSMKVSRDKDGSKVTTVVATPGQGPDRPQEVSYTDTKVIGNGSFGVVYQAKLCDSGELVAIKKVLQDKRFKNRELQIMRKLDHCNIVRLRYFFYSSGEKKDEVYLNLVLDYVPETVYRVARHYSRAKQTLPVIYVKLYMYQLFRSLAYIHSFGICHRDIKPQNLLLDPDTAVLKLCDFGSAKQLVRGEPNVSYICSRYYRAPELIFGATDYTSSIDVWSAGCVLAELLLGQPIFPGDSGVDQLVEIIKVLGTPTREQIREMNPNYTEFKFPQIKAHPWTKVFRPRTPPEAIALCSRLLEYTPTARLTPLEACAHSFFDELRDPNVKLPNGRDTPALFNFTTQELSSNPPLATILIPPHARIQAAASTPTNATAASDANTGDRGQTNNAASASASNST
human GSK3β, sequence (P49841 whole entry): as above
NanoLuc-GSK3β, sequence (P49841 whole entry): as above

SMILES: CCC1(c2cccc(-c3cn(C)nc3C)c2)C2=C(Nc3n[nH]cc31)C(F)C(C)(C)CC2=O (single isomer, unassigned) [Compound 947651, 4-(3-(1,3-dimethyl-1H-pyrazol-4-yl)phenyl)-4-ethyl-8-fluoro-7,7-dimethyl-2,4,6,7,8,9-hexahydro-5H-pyrazolo[3,4-b]quinolin-5-one]
- IC50 (GSK3α): 0.061 µM
- selectivity for GSK3α over GSK3β (GSK3α): 23 fold
- IC50 (human GSK3β): 1.4 µM
- binding mode (competitive displacement of tracer), GSK3α (NanoLuc-GSK3α [1]): ATP-competitive and direct GSK3 binders
- binding mode (competitive displacement of tracer), GSK3β (NanoLuc-GSK3β): ATP-competitive and direct GSK3 binders
- residence time at GSK3α (NanoLuc-GSK3α [2]): significantly longer residence times
- β-catenin nuclear translocation (in words) [3]: nuclear translocation of β-catenin occurred at concentrations in which both GSK3 paralogs are being inhibited
- IC50 [4, 6]: ≤ 0.1 µM
- IC50 ([4]; GSK3-A (TR-FRET 1 mM ATP), GMean, IC50, 1 mM ATP, geometric mean): ≤ 0.1 µM
- IC50 [5, 7]: ≤ 0.1 µM
- IC50 ([5]; GSK3-B (TR-FRET 1 mM ATP), GMean, IC50, 1 mM ATP, geometric mean): 0.1 to 1 µM

SMILES: CCC1(c2cccc(-c3c(F)cncc3OC)c2)C2=C(Nc3n[nH]cc31)C(F)C(C)(C)CC2=O (stereo not shown) [Compound 948546, 4-ethyl-8-fluoro-4-(3-(3-fluoro-5-methoxypyridin-4-yl)phenyl)-7,7-dimethyl-2,4,6,7,8,9-hexahydro-SH-pyrazolo[3,4-b]quinolin-5-one]
- IC50 (GSK3α): 0.096 µM
- selectivity for GSK3α over GSK3β (GSK3α): 11 fold
- IC50 (human GSK3β): 1 µM
- binding mode (competitive displacement of tracer), GSK3α (NanoLuc-GSK3α [1]): ATP-competitive and direct GSK3 binders
- binding mode (competitive displacement of tracer), GSK3β (NanoLuc-GSK3β): ATP-competitive and direct GSK3 binders
- residence time at GSK3α (NanoLuc-GSK3α [2]): significantly longer residence times
- β-catenin nuclear translocation (in words) [3]: nuclear translocation of β-catenin occurred at concentrations in which both GSK3 paralogs are being inhibited
- IC50 [4, 6]: ≤ 0.1 µM
- IC50 ([4]; read-out: GSK3-A (TR-FRET 1 mM ATP), GMean, IC50, 1 mM ATP, geometric mean): ≤ 0.1 µM
- IC50 [5, 7]: ≤ 0.1 µM
- IC50 ([5]; read-out: GSK3-B (TR-FRET 1 mM ATP), GMean, IC50, 1 mM ATP, geometric mean): 0.1 to 1 µM
